Data from the METLIN SMRT retention time set (Domingo-Almenara et al. 2019).

test: gradient 5% acetonitrile 3 min, to 50% in 2 min, to 85% in 15 min, held 3 min, 100 µL/min; details: column: Zorbax Extend-C18 2.1 x 50 mm; eluents: water / acetonitrile, 0.1% formic acid
Outline: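 Over 3 months, pure standards in mixtures of ~100 molecules were run by HPLC coupled to a quadrupole time-of-flight mass spectrometer in positive and negative ionization mode. The column was a Zorbax Extend-C18 (2.1 × 50 mm, 1.8 μm) at 100 μL/min, eluted with water and acetonitrile each holding 0.1% formic acid, with 40 μL dead and 900 μL dwell volumes. Retention time was determined from adduct peaks chosen by software and checked manually.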

Row | SMILES | RP-LC retention time [s]
1 | O=C(Cc1ccsc1)NCCn1c(=O)n(Cc2ccccc2)c2cccnc21 | 772
2 | Cc1ccc(Cn2nc3c(S(=O)(=O)N4CCCCCC4)cccn3c2=O)cc1 | 1000
3 | COc1ccc(F)cc1S(=O)(=O)N1C[C@@H](F)C[C@H]1C(=O)N1CCc2ccccc2C1 | 881
4 | Cc1nn(-c2ccc(C(=O)NCCCN3CCCC3=O)cc2)c2c1C(=O)CC(C)(C)C2 | 670
5 | Cc1nc(N2CCN(CCO)CC2)nc2c1C(=O)CC(C)(C)C2 | 604
6 | O=C(c1ccc(SCCN2CCCCC2)nc1)N1CCN(c2ncccn2)CC1 | 605
7 | CCc1ccccc1S(=O)(=O)N1CCC(N2CCN(Cc3ccccc3)C(=O)C2=O)CC1 | 864
8 | O=C1CC(c2ccccc2F)Cc2nc(N3CCN(c4ccccn4)CC3)ncc21 (stereo unspecified) | 702
9 | O=S1(=O)C[C@H](N2CCN(c3ccccc3F)CC2)[C@@H](S(=O)(=O)c2ccc(Cl)cc2)C1 | 986
10 | COc1ccc(C(=O)N2CCC(C(=O)NCCc3csc(-c4cccs4)n3)CC2)cc1OC | 725
11 | COCCN1C(=O)CCC2(C(=O)NCCc3ccncc3)CCCC=C12 (stereo unspecified) | 542
12 | COc1ccccc1C(=O)N1C[C@H](c2nc(-c3cccnc3)no2)[C@@H](C)C1 | 758
13 | CCNC(=O)c1cn(-c2ccc(-c3nc(C(C)(C)C)no3)cn2)cn1 | 858
14 | Cc1ccc(CN2C[C@@H](CO)[C@H](NC(=O)c3cnccn3)C2)o1 | 550
15 | Cc1noc(C)c1CC(=O)NC1CCN(c2ccc(=O)n(CCOc3ccccc3)n2)C1 (stereo unspecified) | 701
16 | c1cncc(-c2nc(-c3ccnc(N4CCCC4)c3)no2)c1 | 590
17 | O=C1NCCc2ccc(NC(=O)C3(c4ccc(F)cc4)CC3)cc21 | 706
18 | Cc1nc2scc(CC(=O)O)n2c(=O)c1C | 592
19 | Cn1cc(-c2cc3n(n2)CCC(=O)N3CC(=O)NCc2cccnc2)c2ccccc21 | 566
20 | Cc1cccc(NC(=O)CSc2nc(=O)n(CCN(C)C)c3c2CCC3)c1 | 570
21 | CCCNc1cc(N2CCC(CCC(=O)Nc3ccc(C)cc3C)CC2)ncn1 | 733
22 | CCCSCCCNC(=O)Cn1c(=O)c(C)nc2cc(C)c(C)cc21 | 828
23 | O=C(NCC(c1ccsc1)N1CCc2ccccc2C1)C(=O)NC1CCCC1 (stereo unspecified) | 592

Row | SMILES | RP-LC retention time [s]
24 | Cc1noc(CNC(=O)C2CCN(C(=O)c3cc(-c4ccccc4)n[nH]3)CC2)n1 | 610
25 | Cc1cc(F)ccc1NC(=O)C1CCCN1S(=O)(=O)c1cc2c(cc1Cl)NC(=O)CO2 (stereo unspecified) | 745
26 | COc1ccc(C2CC(=O)c3cnc(N4CCN(c5ccccn5)CC4)nc3C2)c(OC)c1 (stereo unspecified) | 713
27 | CCn1cc(S(=O)(=O)Nc2ccc(F)cc2F)c2cccnc21 | 814
28 | CCn1cc(CN2CCC(C(=O)NCc3ccc(C)o3)CC2)c2ccccc21 | 690
29 | CCN1C(=O)C(C)(C(=O)NCc2ccc(OC)cc2)Oc2cccnc21 (stereo unspecified) | 803
30 | Cc1cc(S(=O)(=O)Nc2cccnc2)c(Cl)cc1Cl | 714
31 | Cc1ccc(CNC(=O)C2CCN(CCc3cn(C)c4ncccc34)CC2)cc1 | 615
32 | CCNC(=O)c1csc(N2CCCC(C)C2)n1 (stereo unspecified) | 928
33 | O=C(NCc1ccccc1)NCC1CCOCC1 | 651
34 | CCOC(=O)C1CCN(C(=O)Cc2nnc(-c3sccc3C)o2)CC1 | 774
35 | COc1ccc2c(c1[N+](=O)[O-])CC[C@@H]1[C@@H]2CC[C@]2(C)C(=O)CC[C@@H]12 | 1050
36 | CS(=O)(=O)N1CCC(C(=O)NC2CCCCC2)Oc2ccc(Cl)cc21 (stereo unspecified) | 922
37 | CCOC(=O)c1c(S(=O)(=O)N2CCC(C(=O)Nc3ccc(C(C)C)cc3)CC2)c(C)n(C)c1C | 1020
38 | CCOc1ccccc1N1C=C(C(=O)OC)S(=O)(=O)c2ccccc21 | 849
39 | CCCCN1C(=O)C(CC(=O)N2CCCC2)Sc2ncccc21 (stereo unspecified) | 755
40 | Cc1noc(C2(NC(=O)C3CCCCC3)CCCCC2)n1 | 873
41 | O=C1CCCc2cc(S(=O)(=O)N3CCC(C(=O)Nc4ccc(F)cc4)CC3)ccc2N1 | 749
42 | CCOC(=O)C1CCN(C(=O)CCC2CCCN(c3cc(NC4CC4)ncn3)C2)CC1 (stereo unspecified) | 662
43 | CCOc1ccc(S(=O)(=O)N2CCCC2C(=O)Nc2nnc(CC)s2)cc1 (stereo unspecified) | 805
44 | CCC1CCCCN1C(=O)CN1CCCN(Cc2cc(C)ccc2C)S1(=O)=O (stereo unspecified) | 1150
45 | CC(C)CN1C(=O)c2cccn2CC1C(=O)NCCCOC(C)C (stereo unspecified) | 718

Further lines, results first:

Row | RP-LC retention time [s] | SMILES
46 | 1160 | CCc1ccc(-n2ncc3c(=O)n(Cc4nc(-c5ccccc5)no4)cnc32)cc1
47 | 1260 | Cc1cc(S(=O)(=O)N2CCc3nc(-c4ccc(Cl)cc4)ncc3C2)ccc1F
48 | 1090 | COc1ccc(-c2nnc(-c3ccccc3)o2)cc1S(=O)(=O)N1CCC(C)CC1
49 | 629 | Cc1ccc(-c2nc3nc(C)cc(N4CCN(c5ccccn5)CC4)n3n2)cc1
50 | 1020 | Cc1cc(C)c2c(-n3cccc3)nn(CC(=O)NCc3cccc(Br)c3)c2n1
51 | 965 | Cc1ccc(-c2cn3c(CC(=O)N4c5ccccc5CC4C)csc3n2)cc1C (stereo unspecified)
52 | 934 | Cc1cc(-c2nnc(-c3ccccc3)o2)c(C)n1CC(=O)NCc1ccc(F)cc1F
53 | 860 | Cc1ccc(CNC(=O)Cn2c(=O)nc(N3CCC(C)CC3)c3ccccc32)cc1
54 | 959 | O=C(Nc1ccc(N2CCOCC2)c(Br)c1)c1ccc2c(c1)OCCCO2
55 | 1120 | COc1ccc(-c2csc(NC(=O)CSc3nc4c(cc3C#N)CCC4)n2)cc1
56 | 805 | CCOc1ccc(N2CC(c3nnc(NC(=O)c4ccc(Br)cc4)o3)CC2=O)cc1 (stereo unspecified)
57 | 1190 | CCOc1ccc(-c2noc(Cn3c(=O)n(C(C)C)c(=O)c4ccccc43)n2)cc1
58 | 746 | Cc1cc(C)n2c(Nc3ccc4c(c3)OCCO4)c(-c3ccc(Cl)cc3)nc2n1
59 | 700 | Cc1cccc(-c2ncccc2CNS(=O)(=O)c2cccc(C#N)c2)c1
60 | 934 | COc1ccc(-c2nc(-c3cn(Cc4cccc(F)c4)nn3)no2)c(OC)c1
61 | 1230 | Cc1ccc(-c2nnc(-c3nn(C)c4c3CN(S(=O)(=O)c3ccc(CC(C)C)cc3)CC4)o2)cc1
62 | 1060 | CC(C)c1noc(-c2cc(=O)n(CC(=O)Nc3ccc(Cl)cc3)c3ccccc23)n1
63 | 797 | Cc1cc(NC(=O)C2CCc3nc(N4CCOCC4)ncc3C2)ccc1F (stereo unspecified)
64 | 793 | Cc1cccc(N2C=C(C(=O)N3CCOCC3)S(=O)(=O)c3ccc(F)cc32)c1
65 | 1120 | Cc1ccsc1C(=O)N1CCN(c2ccc(-c3nc(C)c(C)s3)cn2)CC1
66 | 997 | Cc1ccc(-c2cn3c(CC(=O)N4CCN(c5ccc(Cl)cc5)CC4)csc3n2)cc1C
